Source: patent US12435059B2, “AMP-activated protein kinase inhibitors and methods of making and using the same” (The Regents of the University of Colorado, priority 2019, dated 2025)
Where two headings read alike, the source gives them in different places.

How the values were obtained:
Test in all cases: biochemical
Assay type in all cases: binding
[1] = target: 468 kinases (Homo sapiens, UniProt O00750); settings: PIK3C2B; read-out: % Inhibition @ 100 nM
[2] = target: 468 kinases (Homo sapiens, UniProt O14920); settings: IKK-beta; read-out: % Inhibition @ 100 nM
[3] = target: 468 kinases (Homo sapiens, UniProt O14965); settings: AURKA; read-out: % Inhibition @ 100 nM
[4] = target: 468 kinases (Homo sapiens, UniProt O43683); settings: BUB1; read-out: % Inhibition @ 100 nM
[5] = target: 468 kinases (Homo sapiens, UniProt O76039); settings: CDKL5; read-out: % Inhibition @ 100 nM
[6] = target: 468 kinases (Homo sapiens, UniProt O94806); settings: PRKD3; read-out: % Inhibition @ 100 nM
[7] = target: 468 kinases (Homo sapiens, UniProt O95819); settings: MAP4K4; read-out: % Inhibition @ 100 nM
[8] = target: 468 kinases (Homo sapiens, UniProt P00519, M351T); settings: ABL1 (M351T)-phosphorylated; read-out: % Inhibition @ 100 nM
[9] = target: 468 kinases (Homo sapiens, UniProt P00533, L858R/T790M); settings: EGFR(L858R,T790M); read-out: % Inhibition @ 100 nM
[10] = target: 468 kinases (Homo sapiens, UniProt P00533, L861Q); settings: EGFR(L861Q); read-out: % Inhibition @ 100 nM
[11] = target: 468 kinases (Homo sapiens, UniProt P00533, T790M); settings: EGFR(T790M); read-out: % Inhibition @ 100 nM
[12] = target: 468 kinases (Homo sapiens, UniProt P07949); settings: RET; read-out: % Inhibition @ 100 nM
[13] = target: 468 kinases (Homo sapiens, UniProt P08631); settings: HCK; read-out: % Inhibition @ 100 nM
[14] = target: 468 kinases (Homo sapiens, UniProt P10721, T670I/V559D); settings: KIT(V559D,T6701); read-out: % Inhibition @ 100 nM
[15] = target: 468 kinases (Homo sapiens, UniProt P11362); settings: FGFR1; read-out: % Inhibition @ 100 nM
[16] = target: 468 kinases (Homo sapiens, UniProt P11802); settings: read-out: % Inhibition @ 100 nM
[17] = target: 468 kinases (Homo sapiens, UniProt P36888, K663Q); settings: FLT3(K663Q); read-out: % Inhibition @ 100 nM
[18] = target: 468 kinases (Homo sapiens, UniProt P42679); settings: CTK; read-out: % Inhibition @ 100 nM
[19] = target: 468 kinases (Homo sapiens, UniProt P45985); settings: MEK4; read-out: % Inhibition @ 100 nM
[20] = target: 468 kinases (Homo sapiens, UniProt P49674); settings: CSNK1E; read-out: % Inhibition @ 100 nM
[21] = target: 468 kinases (Homo sapiens, UniProt P51451); settings: BLK; read-out: % Inhibition @ 100 nM
[22] = target: 468 kinases (Homo sapiens, UniProt Q13043); settings: MST1; read-out: % Inhibition @ 100 nM
[23] = target: 468 kinases (Homo sapiens, UniProt Q13627); settings: DYRK1A; read-out: % Inhibition @ 100 nM
[24] = target: 468 kinases (Homo sapiens, UniProt Q14164); settings: IKK-epsilon; read-out: % Inhibition @ 100 nM
[25] = target: 468 kinases (Homo sapiens, UniProt Q8IU85); settings: CAMK1D; read-out: % Inhibition @ 100 nM
[26] = target: 468 kinases (Homo sapiens, UniProt Q8IYT8); settings: ULK2; read-out: % Inhibition @ 100 nM
[27] = target: 468 kinases (Homo sapiens, UniProt Q8NE63); settings: HIPK4; read-out: % Inhibition @ 100 nM
[28] = target: 468 kinases (Homo sapiens, UniProt Q99640); settings: PKMYT1; read-out: % Inhibition @ 100 nM
[29] = target: 468 kinases (Homo sapiens, UniProt Q9HCP0); settings: CSNK1G1; read-out: % Inhibition @ 100 nM
[30] = target: 468 kinases (Homo sapiens, UniProt Q9NWZ3); settings: TRAK4; read-out: % Inhibition @ 100 nM
[31] = target: 468 kinases (Homo sapiens, UniProt Q9UL54); settings: TAOK2; read-out: % Inhibition @ 100 nM
[32] = target: 468 kinases (Homo sapiens, UniProt Q9UQM7); settings: CAMK2A; read-out: % Inhibition @ 100 nM

| SMILES | inhibition at 0.1 µM [1] | inhibition at 0.1 µM [2] | inhibition at 0.1 µM [3] | inhibition at 0.1 µM [4] | inhibition at 0.1 µM [5] | inhibition at 0.1 µM [6] | inhibition at 0.1 µM [7] | inhibition at 0.1 µM [8] | inhibition at 0.1 µM [9] | inhibition at 0.1 µM [10] | inhibition at 0.1 µM [11] | inhibition at 0.1 µM [12] | inhibition at 0.1 µM [13] | inhibition at 0.1 µM [14] | inhibition at 0.1 µM [15] | inhibition at 0.1 µM ([16]; CDK4-cyclinD1) | inhibition at 0.1 µM ([16]; CDK4-cyclinD3) | inhibition at 0.1 µM ([16]; CDK4) | inhibition at 0.1 µM [17] | inhibition at 0.1 µM [18] | further results |
| --- | --- | --- | --- | --- | --- | --- | --- | --- | --- | --- | --- | --- | --- | --- | --- | --- | --- | --- | --- | --- | --- |
| CCN(CC)CCNC(=O)c1c(C)[nH]c(/C=C2\C(=O)Nc3ccc(CCC(N)=O)cc32)c1C [Compound No. 16, (Z)-5-((5-(3-Amino-3-oxopropyl)-2-oxoindolin-3-ylidene)methyl)-N-(2-(diethylamino)ethyl)-2,4-dimethyl-1H-pyrrole-3-carboxamide] | 24% | 19% | 41% | 21% | 5% | 53% | 46% | 22% | 18% | 4% | 30% | 60% | 0% | 23% | 14% | 29% | 16% | 9% | 92.9% | 16% | inhibition at 0.1 µM [19]: 97.7%; inhibition at 0.1 µM [20]: 4%; inhibition at 0.1 µM [21]: 29%; inhibition at 0.1 µM [22]: 0%; inhibition at 0.1 µM [23]: 93.3%; inhibition at 0.1 µM [24]: 44%; inhibition at 0.1 µM [25]: 6%; inhibition at 0.1 µM [26]: 82%; inhibition at 0.1 µM [27]: 57%; inhibition at 0.1 µM [28]: 18%; inhibition at 0.1 µM [29]: 16%; inhibition at 0.1 µM [30]: 68%; inhibition at 0.1 µM [31]: 21%; inhibition at 0.1 µM [32]: 45% |
| CCN(CC)CCNC(=O)c1c(C)[nH]c(/C=C2\C(=O)Nc3ccc(CCO)cc32)c1C [Compound No. 10, (Z)—N-(2-(Diethylamino)ethyl)-5-((5-(2-hydroxyethyl)-2-oxoindolin-3-ylidene)methyl)-2,4-dimethyl-1H-pyrrole-3-carboxamide] | 0% | 8% | 0% | 0% | 0% | 0% | 47% | 24% | 0% | 39% | 0% | 55% | 2% | 72% | 44% | 5% | 0% | 0% | 96.4% | 22% | inhibition at 0.1 µM [19]: 0%; inhibition at 0.1 µM [20]: 37%; inhibition at 0.1 µM [21]: 40%; inhibition at 0.1 µM [22]: 28%; inhibition at 0.1 µM [23]: 74%; inhibition at 0.1 µM [24]: 68%; inhibition at 0.1 µM [25]: 0%; inhibition at 0.1 µM [26]: 71%; inhibition at 0.1 µM [27]: 28%; inhibition at 0.1 µM [28]: 19%; inhibition at 0.1 µM [29]: 0%; inhibition at 0.1 µM [30]: 68%; inhibition at 0.1 µM [31]: 18%; inhibition at 0.1 µM [32]: 6% |
